Assay results as given in PMC5047049, “Characterization of a functional C3A liver spheroid model” (Toxicology Research, 2016).
Entries after “also recorded” stand apart in the source; their conditions may differ. Read-outs that look alike come from different tables or passages of the source.

Assays:
[1] = tested on: MRP2 and Pgp transporters; experiment: Analysis of transporter function with CMFDA substrate in C3A spheroids; type: cell-based; details: 30 min
Method: (§1) Spheroids and monolayers were incubated with 5 μM 5-chloromethylfluorescein diacetate (CMFDA-Life Technologies) with or without 25 μM MK571 (MRP inhibitor) and 12.5 μM PSC833 (Pgp inhibitor) in EMEM for 30 min at 37 °C. CMFDA is membrane permeable until it enters cell and is converted to glutathione-methylfluorescein (GSMF), a cell impermeable substrate for MRP and Pgp.[40] Cells and spheroids were washed in PBS and prepared for immunofluorescence as described above.

[2] = tested on: MRP2 and Pgp transporters; experiment: Analysis of transporter function with CMFDA substrate in 2D monolayer C3A cells; type: cell-based; details: 5 μM CMFDA, 30 min
Method: as §1

[3] = tested on: C3A 2D monolayer; experiment: Toxicological analysis: Cell Titer-Glo cell viability in C3A 2D monolayer, 24 hours; type: cell-based
Method: C3A cells were maintained in EMEM (LGC Standards) supplemented with 10% FBS and 1% penicillin–streptomycin under standard cell culture conditions. For 2D monolayer experiments C3A cells were seeded and left to adhere for 24 hours and confirmed to be 100% confluent before analyses. Spheroids were treated at day 3 of culture with hepatotoxic compounds acetaminophen, fialuridine, diclofenac and trovafloxacin diluted in 0.5% DMSO in EMEM for 4 days with repeat dosing on day 2. Monolayer C3A cells were treated with compounds for 24 hours. Cell viability was analysed using Cell Titer-Glo assay (Promega) according to the manufacturer's instructions and plotted as a percentage of untreated control.

[4] = tested on: C3A spheroids; experiment: Toxicological analysis: Cell Titer-Glo cell viability in C3A spheroids, 4 days with repeat dosing; type: cell-based
Method: Spheroids were created using the liquid overlay technique as previously described.[38] Briefly, 100 μl of sterile 1.5% Agarose (high gelling temperature-Sigma Aldrich) in EMEM was added per well to flat-bottomed 96-well cell culture plates to form a low-adherence surface. Additionally Ultra Low Adherence plates (ULA-Corning) were used as a comparison. C3A cells were seeded at 500, 750, 1000, 1500, 2000 or 2500 cells per well in 100 μl media and left for 72 hours to form spheroids. Media was renewed twice weekly and spheroids were cultured for up to 32 days. Images of spheroids in culture were taken by phase-contrast microscopy through 4× objective and maximum spheroid diameter measured. Spheroids were treated at day 3 of culture with hepatotoxic compounds acetaminophen, fialuridine, diclofenac and trovafloxacin diluted in 0.5% DMSO in EMEM for 4 days with repeat dosing on day 2. Monolayer C3A cells were treated with compounds for 24 hours. Cell viability was analysed using Cell Titer-Glo assay (Promega) according to the manufacturer's instructions and plotted as a percentage of untreated control.

[5] = tested on: HepG2 monolayer cultures; design: method as in PMID 9862754; details: cited from earlier work
[6] = Homo sapiens, spheroids from 1000 C3A cells, treated at day 3 for 4 days with repeat dosing on day 2, read-out: IC50 value in C3A spheroids
[7] = Homo sapiens, monolayer C3A cells treated for 24 hours, read-out: IC50 value in C3A 2D monolayer (converted)

## CC(=O)Oc1ccc2c(c1)Oc1cc(OC(C)=O)ccc1C21OC(=O)c2cc(CCl)ccc21 [CMFDA, 5-chloromethylfluorescein diacetate]
[1]; 5 μM CMFDA, C3A spheroids
  CMFDA localisation in spheroids: accumulation and co-localisation of the compound within secondary canalicular-like structures; also recorded: accumulation of CMFDA in the bile canalicular structures
[1]; with 25 μM MK571 (MRP inhibitor) and 12.5 μM PSC833 (Pgp inhibitor)
  CMFDA localisation in spheroids with MRP and Pgp transporters blocked: retained in the cell cytoplasm
[2]
  CMFDA localisation in 2D monolayer: retained CMFDA (green) within the cell cytoplasm

## O=C(O)Cc1ccccc1Nc1c(Cl)cccc1Cl [Diclofenac]
[3]; monolayer C3A cells treated for 24 hours
  IC50 value in C3A 2D monolayer: Non toxic
[3]; monolayer C3A cells treated for 24 hours, listed as diclofenac
  IC50 value in C3A 2D monolayer: did not have a toxic response at the concentrations used
[4]; [6]
  IC50: 295 µM
[5]
  IC50: ~763 µM

## O=c1[nH]c(=O)n([C@@H]2O[C@H](CO)[C@@H](O)[C@@H]2F)cc1I [Fialuridine]
[3]; [7]
  IC50: 380 µM
[4]; [6]
  IC50: 206 µM

## CC(=O)Nc1ccc(O)cc1 [Paracetamol]
[3]; C3A monolayer, 24 hours, read-out: IC50 in monolayer culture
  IC50: 33800 µM
[3]; [7]
  IC50: 33800 µM
[4]; 96 h, C3A spheroids, 4 days repeat dosing, read-out: IC50 in spheroids
  IC50: 7200 µM
[4]; [6]
  IC50: 7210 µM

## N[C@@H]1[C@H]2CN(c3nc4c(cc3F)c(=O)c(C(=O)O)cn4-c3ccc(F)cc3F)C[C@@H]12 [Trovafloxacin]
[3]; [7]
  IC50: 440 µM
[4]; [6]
  IC50: 65 µM
